Laboratory results: ChEMBL document CHEMBL1124855, “Synthesis and muscarinic activities of 1,2,4-thiadiazoles” (J Med Chem, 1990)

Legend:
[1] = molecular target: T1, Muscarinic acetylcholine receptor (Rattus norvegicus) (UniProt P08482+P08483+P08485+P08911+P10980)
Description: Affinity to displace radioligand [3H]oxotremorine (OXO) at muscarinic acetylcholine receptor from rat cortical homogenate.

[2] = molecular target: T1, Muscarinic acetylcholine receptor (Rattus norvegicus); remark: listed apart in the source
Description: Ability to displace radioligand [3H]N-methylscopolamine (NMS) at muscarinic acetylcholine receptor from rat cortical homogenate.

[3] = tested on: Muscarinic acetylcholine receptor (Rattus norvegicus); experiment: Ratio of [3H]N-methylscopolamine (NMS) to [3H]oxotremorine (OXO) at Muscarinic acetylcholine receptor from rat cortical homogenate
[4] = molecular target: T1, Muscarinic acetylcholine receptor (Rattus norvegicus); experiment: Ability to displace radioligand [3H]N-methylscopolamine (NMS) at Muscarinic acetylcholine receptor from rat cortical homogenate

Row | SMILES | K app [1] [µM] | K app [2] [µM] | Ratio [3] | K app [4] [µM]
1 | CCc1nsc([C@@H]2CN3CCC2C3)n1 (stereo not given in full) | 0.005 | 0.29 | – | –
2 | CN(C)c1nsc([C@@H]2CN3CCC2C3)n1 (stereo not given in full) | 0.062 | 0.84 | – | –
3 | COc1nsc([C@@H]2CN3CCC2C3)n1 (stereo not given in full) | 0.006 | 2 | – | –
4 | CC(C)c1nsc([C@@H]2CN3CCC2C3)n1 (stereo not given in full) | 0.041 | 0.29 | – | –
5 | C1=C(c2ncns2)CNCC1 | 0.014 | 11 | – | –
6 | Cc1noc(C2=CCCN(C)C2)n1 | – | – | 390 | –
7 | CN1CCC=C(c2ncno2)C1 | 0.0077 | 8.9 | 1200 | –
8 | c1ccc(Cc2nsc([C@H]3CN4CCC3C4)n2)cc1 (stereo not given in full) | 0.061 | 0.54 | – | –
9 | COc1nsc(C2CN3CCC2CC3)n1 (stereo not given) | 0.033 | 0.9 | – | –
10 | c1ccc(Cc2nsc(C3CN4CCC3CC4)n2)cc1 (stereo not given) | 0.014 | 0.082 | – | –
11 | Cc1nsc(C2CCNC2)n1 (stereo not given) | 0.054 | 18 | – | –
12 | CN1CCC=C(c2ncns2)C1 | 0.027 | 11 | – | –
13 | Cc1nsc([C@H]2CN3CCC2C3)n1 (stereo not given in full) | 0.00045 | 0.37 | – | –
14 | c1nsc([C@H]2CN3CCC2C3)n1 (stereo not given in full) | 0.0013 | 1.4 | – | –
15 | CN(C)c1nsc(C2CN3CCC2CC3)n1 (stereo not given) | 0.023 | 0.14 | – | –
16 | Cc1nsc(C2=CCCNC2)n1 | 0.0021 | 0.95 | – | –
17 | CSc1nsc(C2CN3CCC2CC3)n1 (stereo not given) | 0.012 | 0.12 | – | –
18 | C1CC1c1nsc([C@H]2CN3CCC2C3)n1 (stereo not given in full) | 0.019 | 0.16 | – | –

Row | SMILES | K app [1] [µM] | K app [2] [µM] | Ratio [3] | K app [4] [µM]
19 | COc1nsc([C@H]2CN3CCC2C3)n1 (stereo not given in full) | 0.017 | 1.8 | – | –
20 | COC(=O)C1=CCCNC1 | 0.017 | 20 | – | –
21 | c1nsc([C@@H]2CN3CCC2C3)n1 (stereo not given in full) | 0.0056 | – | – | 6.4
22 | CC(C)c1nsc(C2CN3CCC2CC3)n1 (stereo not given) | 0.0031 | 0.033 | – | –
23 | Cc1nsc(C2CN3CCC2CC3)n1 (stereo not given) | 0.00078 | 0.36 | – | –
24 | CN(C)c1nsc([C@H]2CN3CCC2C3)n1 (stereo not given in full) | 0.098 | 0.99 | – | –
25 | C1CC1c1nsc([C@@H]2CN3CCC2C3)n1 (stereo not given in full) | 0.004 | 0.21 | – | –
26 | OC(c1ccccc1)(c1ccccc1)c1nsc(C2CN3CCC2CC3)n1 (stereo not given) | 6.8e-05 | 0.0002 | – | –
27 | C1CC1c1nsc(C2CN3CCC2CC3)n1 (stereo not given) | 0.0028 | 0.023 | – | –
28 | Cc1nsc(C2CCN(C)C2)n1 (stereo not given) | 0.15 | 36 | – | –
29 | c1ccc(Cc2nsc([C@@H]3CN4CCC3C4)n2)cc1 (stereo not given in full) | 0.074 | 0.34 | – | –
30 | CCc1nsc(C2CN3CCC2CC3)n1 (stereo not given) | 0.009 | 0.082 | – | –
31 | Cc1nsc([C@@H]2CN3CCC2C3)n1 (stereo not given in full) | 0.00062 | 0.62 | – | –
32 | CCc1nsc([C@H]2CN3CCC2C3)n1 (stereo not given in full) | 0.033 | 0.51 | – | –
33 | CC(C)c1nsc([C@H]2CN3CCC2C3)n1 (stereo not given in full) | 0.055 | 0.4 | – | –
34 | c1nsc(C2CN3CCC2CC3)n1 (stereo not given) | 0.0077 | 3.3 | – | –
35 | Cc1nsc(C2=CCCN(C)C2)n1 | 0.0089 | 1.4 | – | –
